The subject of data set [1] is rabbit ileum. Briefly: Spontaneous motility in vitro of rabbit ileum. Further details: species or system rabbit (New Zealand male). As to conditions: Oryctolagus cuniculus; 50% reduction of amplitude of the basal contraction; Tyrode, 37° C.; read-out: CI50 (the source's name). How it is done:
The spontaneous motility of the preparations was measured by a isotonic transducer connected with a microdynamometer. Each preparation was previously left dipped for about one hour in the solution up to reach the osmotic equilibrium.
After this time the single compounds were poured in the bath in gradual doses up to notice the quite total disappearance of spontaneous activity in the organ. For sake of comparison parallel tests with papaverine were carried out.

Data set [2] has as its system rabbit ileum. The data set is described as follows: BaCl2-induced contraction on isolated rabbit ileum. To be noted: Oryctolagus cuniculus; 50% reduction of the BaCl2-induced contraction; BaCl2 50 mcg/ml; read-out: CI50 (the source's name). From the text:
The activity of same compounds in antagonizing the spasm as caused by BaCl2 introduced in the bath at a concentration of 50 mcg/ml one minute before each test was studied. Also for this preparation a comparison with papaverine was at last carried out.

Data set [3] relates to guinea pig ileum. The data set is described as follows: BaCl2-induced contraction on guinea pig ileum in vitro. More on the design: species or system guinea pig (Whitish female). How it is done: (§1) On the guinea pig ileum, which has a minimum intrinsic motility but a remarkable sensibility to agents causing a contracture or a relaxation of the intestinal smooth muscular system, it was possible to further evaluate the spasmolytic activity of the examined substances. As spasmogenic agents acetylcholine and BaCl2 were used which were respectively added to the bath at final concentrations of 0.1 mcg/ml and 50 mcg/ml.
(§2) Ten preparations of guinea pig ileum for each compound were prepared, yet maintaining the same dose range which was used on rabbit ileum.
(§3) The contractions were measured by means of an isotonic transducer connected with a microdynamometer. Each preparation was left dipped for about 30 minutes up to reach the equilibrium.
(§4) After this time, the single doses of each substance to be examined were introduced three minutes before the spasmogenic substance which was contacted with the preparation for 1 minute. Before the subsequent dose of drug was introduced, the tested organ was allowed to recover the basal conditions and this was ascertained by using the only spasmogenic substance. The process was repeated for all the other concentrations. Afterwards the comparison with the reference spasmolytic substance having a known activity, namely papaverine, was carried out yet working in the same conditions and according to the same procedure.

Data set [4] concerns guinea pig ileum. Briefly: Acetylcholine-induced contraction on guinea pig ileum in vitro. More on the design: species or system guinea pig (Whitish female). As for the experimental part: as §1, §2, §3, §4
The next data set concerns small intestine. Briefly: Effect on the intestinal progress of opaque meal in rat. Type of data set: in vivo, rat (Male Wistar). As to conditions: for Progress %: 40 minutes after opaque meal, mean of ten ± standard error, controls 81.76 ± 2.33. As for the experimental part: Male Wistar rats weighing 150-180 g were employed subdivided in groups of ten subjects, which were maintained fasting for 18 hours before the test.
Two administration ways were considered: oral and intraperitoneal.
In the first set of tests to every group of animals each compound was orally administered in the form of an aqueous solution or suspension in gum-arabic (10% in water) 40 minutes before an opaque meal consisting of a suspension of 5% vegetable charcoal in gum-arabic (20% in water).
The animals were killed by cranial injury 40 minutes after the oral administration of the opaque meal and the small intestine was drawn. To the control group an equal volume of saline was administered in the same administration way. The second set of tests was carried out by administering intraperitoneally the compounds 30 minutes before the opaque meal. The animals were killed 40 minutes after the swallowing of the alimentary bolus and the small intestine was drawn; to the control group an equal volume of saline was injected. The total length of small intestine and the progress of opaque meal were measured in each killed animal.

Data set [5] concerns carbachol-stimulated intestinal motility. Briefly: Effect on intestinal progress in rats after excitation with carbachol. To be noted: 40 mg/kg i.p.; carbachol 30 mcg/kg i.p.; mean of ten ± standard errors; non-stimulated controls 55.7 ± 2.23, stimulated controls 77.95 ± 1.72. It is filed as in vivo, rat. As for the experimental part: Subsequently a further series of tests were carried out in order to evaluate the capability of some examined compounds in hindering the stimulating action on intestinal motility of a dose of carbachol at the concentration of 30 mcg/kg when intraperitoneally administered. Carbachol or carbamylcholine chloride is a known substance endowed with parasympathomimetic action.
The control group was given an equal volume of saline.
The survey of the data as given in tables 6 was carried out as previously described by considering the percent intestinal progress of opaque meal with respect to the total length of small intestine.

In data set [6] the test system is effects caused by Tremorin. Briefly: Central and peripheral anticholinergic activity in mouse after administration of Tremorin. As to Miosis: key: +: Presence of the effect (ptyalism, miosis, tremors); -: Lack of the effect (ptyalism, miosis, tremors). As to Ptyalism: key: +: Presence of the effect (ptyalism, miosis, tremors); -: Lack of the effect (ptyalism, miosis, tremors). As to Tremors: key: +: Presence of the effect (ptyalism, miosis, tremors); -: Lack of the effect (ptyalism, miosis, tremors). It is filed as in vivo, mouse (Swiss male). As to conditions: for Tremors / Miosis / Ptyalism: Tremorin 25 mg/kg i.p.; for Tremors: central activity; for Miosis / Ptyalism: peripheral activity; for antagonism of the effects of Tremorin / anticholinergic side effects: result in words, hydrochloride. As for the experimental part: (§5) In order to evaluate the possible undesirable collateral systemic effects, tests of central and peripheral anticholinergic activity were carried out by using two animal species, mouse and rat.
In the first series of tests Swiss male mice averaging 25 g were used which were subdivided in three groups of 8 animals. […] The third, control group was given an equal volume of saline.
In watching the effects caused by Tremorin during the development of its action, beside the time for the appearance of tremors as an index of the central activity, further parameters such as ptyalism and miosis were contemplated as indexes of peripheral activity.

For data set [7], the system named is acetylcholine-induced chromodacryorrhea. The data set is described as follows: Anticholinergic activity on chromodacryorrhea from acetylcholine. It is filed as in vivo, rat (male Wistar). As for the experimental part: as §5
Another series of experiments was carried out on male Wistar rats averaging 150 g in order to point out the anticholinergic activity at the glandular level.
A first control group consisting of six animals was subcutaneously injected with 160 mcg of acetylcholine.

Data set [8] in a line: Acute toxicity (DL50) in mouse. To be noted: mouse, in vivo. It is filed as in vivo. As for the experimental part:
(§6) The determination of the lethal dose to 50% of the animals which were treated with the examined substances was obtained by using male Swiss mice averaging 22 g and by considering two administration ways: oral and intraperitoneal.
(§7) Groups of six animals of each dose were prepared which were kept under observation for 7 days and fasting since the evening before the experience.
(§8) During the observation period possible and clear changes in activity and behaviour were controlled by using the Irwin test: a behavioural outline of the treated animals was obtained with respect to other subjects which received reference drugs.
(§9) The calculation of acute toxicity was carried out by using the Litchfield and Wilcoxon procedure (J. Pharmac. Exp. Ther. 96, 99, 1949).
(§10) The acute toxicity values in mg/kg are given in table 9 in the form of average values with the relevant fiducial limits in comparison with papaverine.

The test system of a further data set is mouse. Briefly: Acute toxicity (DL50) in mouse. Type of data set: in vivo. To be noted: result in words; orally and intraperitoneally. As for the experimental part: as §6, §7, §8, §9, §10
A further data set in a line: Solubility. It is filed as physicochemical. To be noted: saline; read-out: maximum dose consistent with the total solubility in saline.

By LD50 is commonly meant the dose at which mortality reaches 50%. Read a high LD50 as lower toxicity. As a reminder, the solubility is the dissolved amount per volume that the medium holds.

The structures appear in SMILES notation. Structures can show the parent of a compound that is named as a salt. Some results are limits rather than exact numbers.

For `c1ccc(C(CCNc2ccccn2)c2ccccc2)cc1` [N-(2'-pyridyl)-3,3-diphenylpropylamine hydrochloride], the IC50 came out at 13 µM in the data set with rabbit ileum [1]; 14 µM in the data set with rabbit ileum [2]; 5.6 µM in the data set with guinea pig ileum [3] (Cavia porcellus, BaCl2 50 mcg/ml, Tyrode, 37° C., 3 minutes before spasmogen, read-out: CI50 (the source's name)); 11 µM in the data set on guinea pig ileum [4] (Cavia porcellus, acetylcholine 0.1 mcg/ml, Tyrode, 37° C., 3 minutes before spasmogen, read-out: CI50 (the source's name)). Besides, in the data set with guinea pig ileum [3] (result in words), the “BaCl2-induced contraction on guinea pig ileum” value is given as “more active than papaverine”. Besides, in the data set on guinea pig ileum [4] (result in words), the “acetylcholine-induced contraction on guinea pig ileum” value is on record as “also effective on the acetylcholine-induced contraction”. For the same molecule, the Progress % stood at 62.10 ± 2.54% in the data set on small intestine (20 mg/kg i.p.), 67.65 ± 2.54% with small intestine (50 mg/kg os) and 42.25 ± 3.34% in data set [5]. Besides, the “reducing the progress of an opaque meal” value in the data set on small intestine (oral and intraperitoneal, result in words) was “the most active compound in reducing the progress of an opaque meal in both of the considered administration ways”. Besides, the Tremors entry in data set [6] (50 mg/kg i.p.) and in [6] (100 mg/kg i.p.) was “+” in each case. The Miosis result in data set [6] (50 mg/kg i.p.) and in data set [6] (100 mg/kg i.p.) was “+” each time. Besides, the Ptyalism result in data set [6] (50 mg/kg i.p.) and in [6] (100 mg/kg i.p.) was “+” each time. Also, the “antagonism of the effects of Tremorin / anticholinergic side effects” value is given as “does not antagonize the ffects of Tremorin neither at a central level nor at a peripheral level” in data set [6] (listed as N-(2'-pyridyl)-3,3-diphenyl-propylamine hydrochloride) and “does not show anticholinergic side effects at a central level also at high doses” in data set [6] (listed as N-(2'-pyridyl)-3,3-diphenylpropylamine hydrochloride). Moreover, the Chromodacryorrhea entry in [7] (50 mg/kg i.p., acetylcholine 160 mcg s.c.) is given as “+”. The “effect on acetylcholine-induced chromodacryorrhea” value in data set [7] (50 mg/kg, result in words) was “do not modify the acetylcholine-induced chromodacryorrhea”. Besides, the results for the LD50 at 168 h in [8] (ip) and in [8] (po) were 360 mg/kg and greater than 1500 mg/kg, respectively. The acute toxicity entry in the data set on mouse was “The less toxic compound”. Besides, the solubility in the data set “Solubility” stood at 1000 µg/mL.

These data come from patent US4405627A, “Diphenylpropylamino-pyridine compounds useful as medicines” (Italiana Schoum S.p.A., priority 1979, dated 1983).
